Legend:
Assay type in all cases: in vivo, Male Sprague-Dawley rats
plasma TNF-a = assay: Plasma TNF-a in LPS-challenged rats; conditions: 25 or 50 microgram oral daily over 7 days, LPS 0.5 mg/kg IP 2 hours after last dose, sacrifice four hours later, compared to LPS treated animals
Experimental: (§1) Male Sprague-Dawley rats (175 g) are kept on a 12-h light:dark cycle with food (Harlan-Teklad Rodent Chow, Madison, Wis.) and water provided freely. Animals are administered daily doses of vitamin K2 (MK-7) or saline (control) via oral gavage over 7 days. Stock solutions of vitamin K2 are prepared containing 3.5 g/L HCO-60 and 1 g/L of […] in buffer A (0.15 M NaCl, 0.05 M Tris-HCl, pH 7.5). The K2 is dissolved by sonication during five pulses of 5 set with an amplitude of 6 pm. Solutions thus obtained are clear, homogeneous, and stable. Shortly before vitamin K administration the stock solutions are diluted five times with buffer A, leading to a final HCO-60 concentration of 0.7 g/L. Further dilutions (as required) are made with 0.7 g/L HCO-60 in buffer A. Each dilution step is followed by sonication as described above. In all cases vitamin K2 is administered to the rats in 0.5 mL samples, with either 25 or 50 microgram oral doses.
On the final day (Day 7), rodents are administered vitamin K2 and 2 hours later were given an IP dose of LPS (Escherichia coli serotype 0111:B4, L2630, Sigma) intraperitoneally (0.5 mg/kg of body weight). Four hours later animals are sacrificed.

IKKα/β (Ser176/180) = assay: Immunoblot of phosphorylated IKKα/β in gastrocnemius muscle of LPS-challenged rats; conditions: 25 or 50 microgram oral daily over 7 days, LPS 0.5 mg/kg IP, compared to LPS treatment
Experimental: (§2) Male Sprague-Dawley rats (175 g) are kept on a 12-h light:dark cycle with food (Harlan-Teklad Rodent Chow, Madison, Wis.) and water provided freely. Animals are administered daily doses of vitamin K2 (MK-7) or saline (control) via oral gavage over 7 days. Stock solutions of vitamin K2 are prepared containing 3.5 g/L HCO-60 and 1 g/L of […] in buffer A (0.15 M NaCl, 0.05 M Tris-HCl, pH 7.5). The K2 is dissolved by sonication during five pulses of 5 set with an amplitude of 6 pm. Solutions thus obtained are clear, homogeneous, and stable. […]
(§3) Analysis of mTOR Signaling to elFs—Gastrocnemius muscles are weighed and homogenized in 7 volumes of buffer containing 20 mM HEPES (pH 7.4), 100 mM potassium chloride, 0.2 mM EDTA, 2 mM EGTA, 50 mM sodium fluoride, 50 mM glycerophosphate, 0.1 mM phenylmethylsulfonyl fluoride, 1 mM benzamidine, 1 mM dithiothreitol (DTT), and 0.5 mM sodium vanadate. […] Samples are analyzed for the phosphorylation status of 4E-BP 1 (Thr37) and ribosomal protein S6 (Ser 235/236), the anti-phosphospecific antibodies were obtained from Cell Signaling Technology, Beverly, Mass. Additionally, samples are analyzed for phosphorylated IKKα/β (Ser176/180; Cell Signaling Technology) and phosphorylated p65 (Ser536; Cell Signaling Technology).

NFαB p65 = assay: Immunoblot of phosphorylated p65 in gastrocnemius muscle of LPS-challenged rats; conditions: 25 or 50 microgram oral daily over 7 days, LPS 0.5 mg/kg IP, compared to LPS treatment
Experimental: as §2, §3

4E-BP 1 (Thr37) = assay: mTOR signaling: 4E-BP1 phosphorylation in gastrocnemius muscle of LPS-challenged rats; conditions: 25 or 50 microgram oral daily over 7 days, LPS 0.5 mg/kg IP, compared to LPS treatment
Experimental: as §2, §3

[1] = test system: ribosomal protein S6 (Ser 235/236); assay: mTOR signaling: ribosomal protein S6 phosphorylation in gastrocnemius muscle of LPS-challenged rats; conditions: 25 or 50 microgram oral daily over 7 days, LPS 0.5 mg/kg IP, compared to LPS treatment
Experimental: as §2, §3

[2] = test system: total mixed muscle protein; assay: Measurement of protein synthesis (fractional rate Ks, radioactive phenylalanine incorporation) in LPS-challenged rats; conditions: 25 or 50 microgram oral daily over 7 days, LPS 0.5 mg/kg IP, under conditions of inflammatory sepsis, compared to LPS treatment
Experimental: as §1, with “doses. […]” for “doses.”
Measurement of Protein Synthesis—The fractional rate of synthesis (Ks) is estimated from the rate of incorporation of radioactive phenylalanine into total mixed muscle protein using the specific radioactivity of serum phenylalanine as representative of the precursor pool. […]

## CC(C)=CCC/C(C)=C/CC/C(C)=C/CC/C(C)=C/CC/C(C)=C/CC/C(C)=C/CC/C(C)=C/CC1=C(C)C(=O)c2ccccc2C1=O [K2, vitamin K2 (MK-7)]
Plasma TNF-a
  rise of plasma TNF-a: significant decrease in the rise
IKKα/β (Ser176/180)
  drop in phosphorlyation for IKKα/β: significant blunting of the drop in phosphorlyation
NFαB p65
  NFαB p65 induction: significant blunting
4E-BP 1 (Thr37)
  decrease in 4E-BPI(Thr-37) phosphorylation: abrogates the decrease
[1]
  decrease in ribosomal protein S6 phosphorylation: abrogates the decrease
[2]
  fractional rate of mixed muscle protein synthesis: greater preservation

— patent publication US20130323361A1, “NUTRITIONAL COMPOSITIONS INCLUDING EXOGENOUS VITAMIN K2” (NESTEC S.A., priority 2009, published 2013)
